Experimental findings from ChEMBL document CHEMBL3301361, “Experimental in vitro DMPK and physicochemical data on a set of publicly disclosed compounds” are described below.

Values after ≈ are worked out from the molar mass of the structure shown.

The nature of data set [1]: in vitro. Conditions: human, plasma.
Data set [2] is described as follows: in vitro. Conditions: mouse, plasma.
The nature of data set [3]: in vitro. Conditions: SD, HW or BN, rat, plasma.
A short description of data set [4]: physchem. The conditions noted are these: octan-1-ol/water, pH 7.4, LogD7.4.
The nature of data set [5]: physchem. The conditions noted are these: pH 7.4 buffer.

For orientation: fraction unbound means free concentration divided by total concentration. The low end stands for little free substance, the high end for much free substance. Consider `Nc1scc2c(C(=O)NC3CC3)nn(-c3ccc(Cl)cc3)c(=O)c12`, for which the results for the fraction unbound at 5 h in the data set “in vitro [1]” (PPB) and in “in vitro [2]” were 0.0179 and 0.0321, respectively.
The like results for `CC(C)NC(=O)c1nn(-c2ccc(Cl)cc2)c(=O)c2c(N)scc12` were, in that order, 0.0099 and 0.0219.
Turning to `CCOc1cc(CN2CCC(NC(=O)c3cncc(C)c3)CC2)cc(OCC)c1-c1ccc(F)cc1`, the free fraction (fraction unbound) at 5 h was 0.0149 in “in vitro [1]” (PPB), 0.0119 in “in vitro [3]” and 0.0139 in the data set “in vitro [2]”.
The like results for `Cc1cc(C)c(S(=O)(=O)NCc2ccncc2)c(C)c1` were, in that order, 0.139, 0.139 and 0.151.
With `COc1ccc(S(=O)(=O)N2CC(C)N(S(=O)(=O)c3ccc(OC)cc3)CC2C)cc1` (stereo unspecified), the fraction unbound at 5 h was 0.0035 in the data set “in vitro [1]”, 0.0139 in “in vitro [3]” and 0.0179 in the data set “in vitro [2]”.
For `CC(C)(C)OC(=O)NC[C@H]1CC[C@H](CNC(=O)c2cc(N3CCC(CCN4CC(O)C4)CC3)nc3ccccc23)CC1`, the free fraction (fraction unbound) at 5 h in “in vitro [1]” (PPB) is 0.03; in “in vitro [3]”, 0.0328; in “in vitro [2]” it was 0.0139.
Consider `NC(=O)c1ccc(-n2nnnc2Oc2ccc(Br)cc2)cc1`, for which the values for the fraction unbound at 5 h in the data set “in vitro [3]” and in “in vitro [2]” were 0.0872 and 0.0854, respectively.
Take `Cc1[nH]c(C(=O)NC2CCN(c3ncc(C(=O)O)s3)CC2)c(Cl)c1Cl`: the fraction unbound at 5 h in “in vitro [1]” (PPB) is 0.0293; in the data set “in vitro [2]”, 0.197.
In the same order, the values of `N#CCOc1ccccc1-c1ccc(-c2nc3ccncc3c(O)c2C#N)cc1` are 0.0011 and 0.0149.
In the same order, the values of `N#Cc1c(-c2ccc(-c3ccccc3Cl)cc2)nc2ccncc2c1O` are 0.0008 and 0.0022.
As usually defined, the logD is the decadic logarithm of the distribution of all forms, ionised or not, between an organic phase and buffer at a given pH. As to `Cc1cc(-c2ccc(-c3nc4ccncc4c(O)c3C#N)cc2)ccn1`, the logD in the data set “physchem [4]” stood at 1.6. The fraction unbound at 5 h in “in vitro [1]” (PPB) is 0.0041; in the data set “in vitro [2]”, 0.013.
Turning to `COCC#Cc1cccc(C2(c3ccc(OC(F)F)cc3)N=C(N)N3CC(F)(F)CN=C32)c1` (stereo unspecified), the fraction unbound at 5 h is 0.0111 in “in vitro [1]” (PPB) and 0.013 in the data set “in vitro [2]”.
As to `COc1ccc2cc(S(=O)(=O)N[C@H](CC(=O)N[C@H](Cc3ccc(CN4[C@H](C)CCC[C@@H]4C)cc3)C(=O)N(C)C(C)C)c3ccc4c(c3)OCO4)ccc2c1`, the fraction unbound at 5 h in “in vitro [1]” (PPB) is 0.04; in the data set “in vitro [3]”, 0.0447; in “in vitro [2]” it was 0.04.
With `Cc1nccn1-c1sc(Nc2cnccn2)nc1-c1cccc(C#N)c1`, the values for the fraction unbound at 5 h in “in vitro [1]” (PPB), in the data set “in vitro [3]” and in “in vitro [2]” were 0.0437, 0.0437 and 0.0335, respectively.
As for `COc1cc(Nc2nc3c(c(COC4CCCC4)n2)COCC3)ccc1-n1cnc(C)c1`, the fraction unbound at 5 h is 0.0205 in “in vitro [3]” and 0.0149 in “in vitro [2]”.
Take `COc1cc(Nc2nc3c(c(Cc4ccccc4)n2)CN(CCO)CC3)ccc1-n1cnc(C)c1`: the fraction unbound at 5 h is 0.0191 in the data set “in vitro [1]” (PPB) and 0.02 in “in vitro [2]”.
Turning to `c1ccc([C@@H]([C@H](c2ccccc2)N2CCCCC2)N2CCCCC2)cc1`, the fraction unbound at 5 h in “in vitro [1]” (PPB) was 0.0988; in “in vitro [3]”, 0.319; in the data set “in vitro [2]” it was 0.262.
Turning to `NC1=NC(c2ccnc(C(F)(F)F)c2)(c2ccc(F)c(-c3cncnc3)c2)c2cccc(F)c21` (stereo unspecified), the free fraction (fraction unbound) at 5 h is 0.0293 in “in vitro [1]” (PPB) and 0.0409 in the data set “in vitro [2]”.
The like results for `CC#Cc1cncc(-c2cccc(C3(c4cc(C)c(OC)c(C)c4)N=C(C)C(N)=N3)c2)c1` (stereo unspecified) were, in that order, 0.002 and 0.006.
As to `CC(C)S(=O)(=O)N(C)c1cc(C(=O)N[C@@H](Cc2ccccc2)[C@@H](N)CF)cc(NC[C@H]2C[C@@H]2C)n1`, the fraction unbound at 5 h was 0.0447 in “in vitro [1]” (PPB) and 0.0191 in “in vitro [2]”.
Take `CCCN(c1cccc(C#N)c1)P(=O)(c1ccccc1)c1ccccc1`: the fraction unbound at 5 h in “in vitro [1]” was 0.0056; in the data set “in vitro [3]” it was 0.0633; in “in vitro [2]” it was 0.0467.
Consider `CCOc1cc(CN2CCC(Nc3nc4cc(S(N)(=O)=O)ccc4o3)CC2)cc(OCC)c1N`, for which the fraction unbound at 5 h is 0.299 in “in vitro [1]” (PPB), 0.11 in “in vitro [3]” and 0.0928 in the data set “in vitro [2]”.
With `CC1=C(C(=O)OCc2ccccc2)C(c2cccs2)NC(=O)N1` (stereo unspecified), the fraction unbound at 5 h in “in vitro [1]” (PPB) was 0.0268; in the data set “in vitro [3]”, 0.0171; in the data set “in vitro [2]”, 0.03.
The compound `C[C@H](c1ccc(F)cc1CCCC(=O)O)N(c1cc(F)ccc1F)S(=O)(=O)c1ccc(Cl)cc1` had a logD in “physchem [4]” of 3.1. Besides, the fraction unbound at 5 h in “in vitro [1]” (PPB) is 0.001; in the data set “in vitro [2]”, 0.005.
Regarding `CCNc1cc(C(=O)N[C@@H](Cc2ccccc2)[C@H](O)CNCc2cccc(C(F)(F)F)c2)c(F)c(N2CCCCS2(=O)=O)c1`, the fraction unbound at 5 h in the data set “in vitro [1]” (PPB) was 0.0119; in “in vitro [2]”, 0.016.
For the compound `CC(O)(C(=O)Nc1ccc(S(=O)(=O)N2CCCC2)cc1)C(F)(F)F` (stereo unspecified), the unbound share (fraction unbound) at 5 h in “in vitro [1]” (PPB) is 0.22; in the data set “in vitro [3]”, 0.119; in the data set “in vitro [2]” it was 0.0818.
Take `O=C1Nc2cc(C(F)(F)F)ccc2C1(O)c1cc(Cl)ccc1O` (stereo unspecified): the fraction unbound at 5 h in “in vitro [1]” was 0.0149; in “in vitro [3]” it was 0.0111; in “in vitro [2]” it was 0.0219.
For the compound `c1cncc(Nc2ncc(-c3ccncn3)c(-c3ccco3)n2)c1`, the fraction unbound at 5 h in “in vitro [1]” (PPB) is 0.139; in the data set “in vitro [3]” it was 0.139; in “in vitro [2]”, 0.16.
Consider `O=c1[nH]c2cc(C(F)(F)F)ccc2n1-c1cc(C(F)(F)F)ccc1O`, for which the fraction unbound at 5 h in “in vitro [3]” was 0.0011; in “in vitro [2]”, 0.0021.
For the compound `CCCC[C@H](NC[C@@H]1Cc2cccc(c2)CCCCc2cc(cc(N(CCC)S(C)(=O)=O)c2)C(=O)N1)C(=O)NCC(C)C`, the fraction unbound at 5 h in the data set “in vitro [1]” (PPB) was 0.004; in “in vitro [2]”, 0.002.
Turning to `Cc1nc(-c2c(F)cc(Cl)cc2-c2cnc([C@@H](C)NC(=O)[C@@](C)(O)C(F)(F)F)c(F)c2)no1`, the fraction unbound at 5 h in the data set “in vitro [3]” was 0.0358; in the data set “in vitro [2]”, 0.0251.
Consider `C[C@H](NC(=O)Cc1cc(F)cc(F)c1)C(=O)NC1C(=O)N(C)c2ccccc2-c2ccccc21` (stereo partly specified), for which the log distribution coefficient (logD) in the data set “physchem [4]” is 3.6. In addition, the fraction unbound at 5 h in “in vitro [1]” (PPB) is 0.0099; in “in vitro [2]” it was 0.0171.
For the compound `CC(O)(C(=O)Nc1cccc(S(=O)(=O)c2ccccc2)c1)C(F)(F)F` (stereo unspecified), the fraction unbound at 5 h is 0.0909 in “in vitro [1]” (PPB), 0.0594 in “in vitro [3]” and 0.0661 in “in vitro [2]”.
For the compound `C1Cc2[nH]nc(-c3nnn[nH]3)c2C1`, the fraction unbound at 5 h in “in vitro [3]” is 0.072; in “in vitro [2]”, 0.371.
`O=C1CCc2cc(-c3cncc4ccccc34)ccc2N1`: the fraction unbound at 5 h in “in vitro [1]” (PPB) is 0.0358; in the data set “in vitro [3]”, 0.0313; in the data set “in vitro [2]”, 0.0313.
With `CCCn1c(=O)[nH]c2nc(-c3ccc(S(=O)(=O)N4CCN(Cc5ccc(Cl)cc5)CC4)cc3)[nH]c2c1=O`, the fraction unbound at 5 h in “in vitro [3]” was 0.0006; in the data set “in vitro [2]” it was 0.0007.
In the case of `c1ccc2c(c1)CC(N1CCN(c3cccc4c3OCCO4)CC1)C2`, the figures for the fraction unbound at 5 h in “in vitro [1]” (PPB), in “in vitro [3]” and in the data set “in vitro [2]” were 0.0262, 0.0428 and 0.0661, respectively.
As to `COc1cc(C(C)C)c(Oc2cnc(NC(CO)CO)nc2N)cc1I`, the fraction unbound at 5 h in “in vitro [3]” was 0.028; in “in vitro [2]”, 0.0581.
As for `CC(C)Cc1c(C(=O)C(N)=O)c2c(OCC(=O)O)cccc2n1Cc1ccccc1`, the values for the free fraction (fraction unbound) at 5 h in the data set “in vitro [1]”, in “in vitro [3]” and in “in vitro [2]” were 0.0313, 0.0187 and 0.0366, respectively.
Regarding `Fc1ccc(-c2c[nH]c(C3CCN(Cc4ccn(-c5ccc(C(F)(F)F)cc5)c4)CC3)n2)cc1`, the fraction unbound at 5 h in “in vitro [1]” (PPB) was 0.0009; in the data set “in vitro [2]” it was 0.0023.
Turning to `O=C(Nc1ccc(Cl)c(C(=O)Nc2cccnc2)c1)c1cccc(C(F)(F)F)c1`, the fraction unbound at 5 h in “in vitro [1]” (PPB) was 0.003; in “in vitro [2]”, 0.0119.
For the compound `CC(C)[C@H](O)C(=O)N[C@@H](C)C(=O)N[C@@H]1C(=O)N(C)CCc2ccccc21`, the fraction unbound at 5 h in “in vitro [1]” (PPB) was 0.803; in the data set “in vitro [3]”, 0.792; in “in vitro [2]”, 0.858.
The like results for `Cc1ncsc1C(=O)N(Cc1cc(=O)[nH]c2c(F)cccc12)c1cccc(Cl)c1` were, in that order, 0.0209, 0.0836 and 0.0736.
In the case of `O=C(CC1CCN(Cc2ccn(-c3ccc(C(F)(F)F)cc3)c2)CC1)NC(c1ccncc1)c1ccc(Cl)cc1` (stereo unspecified), the results for the fraction unbound at 5 h in “in vitro [1]” (PPB) and in the data set “in vitro [2]” were 0.013 and 0.0051, respectively.
Regarding `c1ccc2nc(COc3ccc(-c4n[nH]cc4-c4ccncc4)cc3)ccc2c1`, the free fraction (fraction unbound) at 5 h in the data set “in vitro [3]” was 0.0018; in “in vitro [2]” it was 0.0013.
In the same order, the values of `COc1ccc(C2(c3ccc(F)c(-c4cccnc4F)c3)N=C(N)N(C)C2=O)cc1C` (stereo unspecified) are 0.0099 and 0.0081.
With `CCOc1cc2c(c(F)c1OCC)C(=N)N(CC(=O)c1cc(N3CCOCC3)c(OC)c(C(C)(C)C)c1)C2` [ATOPAXAR], the fraction unbound at 5 h is 0.0021 in the data set “in vitro [1]” (PPB) and 0.0025 in the data set “in vitro [2]”.
As for `CCC(CC)[C@@H](CO)NS(=O)(=O)c1ccc(Cl)s1` [GSI-136], the fraction unbound at 5 h was 0.0909 in the data set “in vitro [3]” and 0.11 in “in vitro [2]”.
As usually defined, the thermodynamic solubility is solubility found after equilibrating the solid with the medium. In turn, `CC(C)Cn1cnc2c(N)nc3ccccc3c21` [IMIQUIMOD] came in with a pH-dependent lipophilicity (logD) in the data set “physchem [4]” of 2.52. Besides, the solubility (thermodynamic) in “physchem [5]” is 63.1 µM (≈ 15.2 µg/mL). The values for the fraction unbound at 5 h in the data set “in vitro [3]” and in the data set “in vitro [2]” were 0.179 and 0.0075, respectively.
In the case of `Cn1cc(-c2ccncc2)c(-c2ccc(OCc3ccc4ccccc4n3)cc2)n1` [MARDEPODECT], the fraction unbound at 5 h in the data set “in vitro [3]” was 0.0017; in the data set “in vitro [2]”, 0.0039.
In the same order, the values of `CCCCCCC(=O)CCCCCC/C=C/C[C@@H](O)[C@H](O)[C@@](N)(CO)C(=O)O` [MYRIOCIN] are 0.028 and 0.062.
